# According to patent US9126938B2, “Phosphatidylcholine transfer protein inhibitors” (The Brigham and Women's Hospital, Inc., priority 2009, dated 2015):
# Biological target: T1, PC-TP (Homo sapiens, UniProt Q9UKL6)
# T1 sequence (Q9UKL6 1-214): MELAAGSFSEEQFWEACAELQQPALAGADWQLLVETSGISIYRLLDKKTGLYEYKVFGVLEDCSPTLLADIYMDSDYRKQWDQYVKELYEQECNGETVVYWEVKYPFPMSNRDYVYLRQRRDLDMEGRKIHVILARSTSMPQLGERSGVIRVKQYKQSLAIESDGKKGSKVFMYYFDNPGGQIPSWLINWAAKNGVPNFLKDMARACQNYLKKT
# Assay: PC-TP inhibition assay (Wagle et al. method)
# Type: biochemical
# Conditions: Table 1, concentration value
# Experimental: (§1) The compounds in Table 1 and 2 were assayed for their ability to inhibit PC-TP and StarD10, respectively, using a known assay method (see Wagle et al., 2008. Anal. Biochem. 383:85-92, which is incorporated herein by reference in its entirety). Further, certain compounds were also tested for their ability to inhibit StarD7 (see Table 2).
row,IC50,Compound
1,3.2 µM,"Cc1cc(C)nc(NS(=O)(=O)c2ccc(NC(=S)NC(=O)c3ccc(Cl)cc3Cl)cc2)n1 [Compound 1, 2,4-dichloro-N-(4-(N-(4,6-dimethyl-pyrimidin-2-yl)sulfamoyl)phenylcarbamothioyl) benzamide]"
2,30 µM,"Cc1cc(C)nc(NS(=O)(=O)c2ccc(NC(=O)NC(=O)c3ccccc3Cl)cc2)n1 [Compound 5, 2-chloro-N-(4-(N-(4,6-dimethylpyrimidin-2-yl)sulfamoyl)phenylcarbamoyl) benzamide]"
3,26 µM,"Cc1cc(C)nc(NS(=O)(=O)c2ccc(NC(=O)NC(=O)c3ccc(Cl)cc3)cc2)n1 [Compound 6, 4-chloro-N-(4-(N-(4,6-dimethylpyrimidin-2-yl)sulfamoyl)phenylcarbamoyl) benzamide]"
4,5 µM,"Cc1cc(C)nc(NS(=O)(=O)c2ccc(NC(=O)NC(=O)c3ccc(Cl)cc3Cl)cc2)c1 [Compound 7, 2,4-dichloro-N-(4-(N-(4,6-dimethylpyridin-2-yl)sulfamoyl)phenylcarbamoyl) benzamide]"
5,3.2 µM,"Cc1cc(C)nc(NS(=O)(=O)c2ccc(NC(=O)NC(=O)c3cccc(Cl)c3Cl)cc2)n1 [Compound 9, 2,3-dichloro-N-(4-(N-(4,6-dimethylpyrimidin-2-yl)sulfamoyl)phenylcarbamoyl) benzamide]"
6,30 µM,"Cc1cc(C)nc(NS(=O)(=O)c2ccc(NC(=O)NC(=O)c3ccc(Cl)c(Cl)c3)cc2)n1 [Compound 10, 3,4-dichloro-N-(4-(N-(4,6-dimethylpyrimidin-2-yl)sulfamoyl)phenyl-carbamoyl)benzamide]"
7,> 50 µM,"Cc1cc(C)nc(NS(=O)(=O)c2ccc(N(C)C(=O)NC(=O)c3ccc(Cl)cc3Cl)cc2)n1 [Compound 11, 2,4-dichloro-N-((4-(N-(4,6-dimethylpyrimidin-2-yl)sulfamoyl)phenyl)(methyl)carbamoyl)benzamide]"
8,2.3 µM,"Cc1cc(C)nc(N(C)S(=O)(=O)c2ccc(NC(=O)NC(=O)c3ccc(Cl)cc3Cl)cc2)n1 [Compound 12, 2,4-dichloro-N-(4-(N-(4,6-dimethylpyrimidin-2-yl)-N-methylsulfamoyl)phenylcarbamoyl) benzamide]"
9,2.3 µM,"Cc1cc(NS(=O)(=O)c2ccc(NC(=O)NC(=O)c3ccc(Cl)cc3Cl)cc2)nc(C)n1 [Compound 13, 2,4-dichloro-N-(4-(N-(2,6-dimethylpyrimidin-4-yl)sulfamoyl)phenylcarbamoyl) benzamide]"
10,20 µM,Cc1cc(C)cc(NS(=O)(=O)c2ccc(NC(=O)NC(=O)c3ccc(Cl)cc3Cl)cc2)c1 [Compound 14]
11,8 µM,"Cc1cc(C)nc(NS(=O)(=O)c2ccc(NC(=O)N(C)C(=O)c3ccc(Cl)cc3Cl)cc2)n1 [Compound 15, 2,4-dichloro-N-(4-(N-(4,6-dimethylpyrimidin-2-yl)sulfamoyl)phenylcarbamoyl)-N-methylbenzamide]"
12,20 µM,"COc1ccc(NC(=O)C(Sc2cccc[n+]2[O-])c2ccccc2)cc1Cl (stereo not drawn) [Compound 17, 2-(2-(3-chloro-4-methoxyphenylamino)-2-oxo-1-phenylethylthio)pyridine 1-oxide]"
13,11 µM,"O=C(Nc1cccc(C(F)(F)F)c1)C(Sc1cccc[n+]1[O-])c1ccccc1 (stereo not drawn) [Compound 19, 2-(2-oxo-1-phenyl-2-(3-(trifluoromethyl)phenylamino)ethylthio)pyridine 1-oxide]"
14,13 µM,"O=C(Nc1cc(C(F)(F)F)cc(C(F)(F)F)c1)C(Sc1cccc[n+]1[O-])c1ccccc1 (stereo not drawn) [Compound 20, 2-(2-(3,5-bis(trifluoromethyl)phenylamino)-2-oxo-1-phenylethylthio)pyridine 1-oxide]"
15,15 µM,"O=C(Nc1cc(Cl)cc(Cl)c1)C(Sc1cccc[n+]1[O-])c1ccccc1Cl (stereo not drawn) [Compound 21, 2-(1-(2-chlorophenyl)-2-(3,5-dichlorophenylamino)-2-oxoethylthio)pyridine 1-oxide]"
16,4.1 µM,"COc1ccccc1C(Sc1cccc[n+]1[O-])C(=O)Nc1cc(Cl)cc(Cl)c1 (stereo not drawn) [Compound 22, 2-(2-(3,5-dichlorophenylamino)-1-(2-methoxyphenyl)-2-oxoethylthio)pyridine 1-oxide]"
17,12 µM,"O=C(Nc1cc(Cl)cc(Cl)c1)C(Sc1cccc[n+]1[O-])c1cccc2ccccc12 (stereo not drawn) [Compound 23, 2-(2-(3,5-dichlorophenylamino)-1-(naphthalen-1-yl)-2-oxoethylthio)pyridine 1-oxide]"
18,~50 µM,"O=C(Nc1ccc(Cl)cc1C(F)(F)F)C(Sc1cccc[n+]1[O-])c1ccccc1 (stereo not drawn) [Compound 28, 2-(2-(4-chloro-2-(trifluoromethyl)phenylamino)-2-oxo-1-phenylethylthio)pyridine 1-oxide]"
19,> 100 µM,"O=C(Nc1cc(C(F)(F)F)ccc1Cl)C(Sc1cccc[n+]1[O-])c1ccccc1 (stereo not drawn) [Compound 31, 2-(2-(2-chloro-5-(trifluoromethyl)phenylamino)-2-oxo-1-phenylethylthio)pyridine 1-oxide]"
20,> 100 µM,"CCOc1ccccc1NC(=O)C(Sc1cccc[n+]1[O-])c1ccccc1 (stereo not drawn) [Compound 32, 2-(2-(2-ethoxyphenylamino)-2-oxo-1-phenylethylthio)pyridine 1-oxide]"
21,15 µM,"O=C(Nc1ccccc1Cl)C(Sc1cccc[n+]1[O-])c1ccccc1 (stereo not drawn) [Compound 33, 2-(2-(2-chlorophenylamino)-2-oxo-1-phenylethylthio)pyridine 1-oxide]"

# Same assay, conditions: at 30 μM
row,inhibition at 30 µM,Compound
1,25%,"O=C(Nc1cc(Cl)cc(Cl)c1)C(Sc1cc2ccccc2c[n+]1[O-])c1ccccc1 (stereo not drawn) [Compound 24, 3-(2-(3,5-dichlorophenylamino)-2-oxo-1-phenylethylthio)isoquinoline 2-oxide]"

# Same assay, conditions: at 50 μM
row,inhibition at 50 µM,Compound
1,30%,"COc1ccc(C(Sc2cccc[n+]2[O-])C(=O)Nc2cc(Cl)cc(Cl)c2)cc1 (stereo not drawn) [Compound 25, 2-(2-(3,5-dichlorophenylamino)-1-(4-methoxyphenyl)-2-oxoethylthio)pyridine 1-oxide]"
2,20%,"O=C(Nc1cc(Cl)cc(Cl)c1)C(Sc1cccc[n+]1[O-])c1ccc2ccccc2c1 (stereo not drawn) [Compound 26, 2-(2-(3,5-dichlorophenylamino)-1-(naphthalen-2-yl)-2-oxoethylthio)pyridine 1-oxide]"

# Same assay, conditions: at 100 μM
row,inhibition at 100 µM,Compound
1,55%,"Cc1cc(C)nc(NS(=O)(=O)c2ccc(NC(=S)NC(=O)c3ccc(F)cc3)cc2)n1 [Compound 2, N-(4-(N-(4,6-dimethylpyrimidin-2-yl)sulfamoyl)phenylcarbamothioyl)-4-fluorobenzamide]"
2,45%,"Cc1cc(C)nc(NS(=O)(=O)c2ccc(NC(=S)NC(=O)c3ccccc3)cc2)n1 [Compound 3, N-(4-(N-(4,6-dimethylpyrimidin-2-yl)sulfamoyl)phenylcarbamothioyl) benzamide]"

# Same assay, conditions: compound fluorescence in the fluorescence-based assay
row,"Activity (PC-TP), result in words",Compound
1,High fluoroescense,"CCN(CC)CCN(C(=O)Nc1ccc(S(=O)(=O)Nc2nc(C)cc(C)n2)cc1)C(=O)c1ccc(Cl)cc1Cl [Compound 29, 2,4-dichloro-N-(2-(diethylamino)ethyl)-N-((4-(N-(4,6-dimethylpyrimidin-2-yl)sulfamoyl)phenyl)carbamoyl)benzamide]"
2,High fluorescense,"CCN(CC)CCN(c1nc(C)cc(C)n1)S(=O)(=O)c1ccc(NC(=O)NC(=O)c2ccc(Cl)cc2Cl)cc1 [Compound 30, 2,4-dichloro-N-((4-(N-(2-(diethylamino)ethyl)-N-(4,6-dimethylpyrimidin-2-yl)sulfamoyl)phenyl)carbamoyl)benzamide]"

# Biological target: T2, StarD10 (Homo sapiens, UniProt Q9Y365)
# T2 sequence (Q9Y365 1-291): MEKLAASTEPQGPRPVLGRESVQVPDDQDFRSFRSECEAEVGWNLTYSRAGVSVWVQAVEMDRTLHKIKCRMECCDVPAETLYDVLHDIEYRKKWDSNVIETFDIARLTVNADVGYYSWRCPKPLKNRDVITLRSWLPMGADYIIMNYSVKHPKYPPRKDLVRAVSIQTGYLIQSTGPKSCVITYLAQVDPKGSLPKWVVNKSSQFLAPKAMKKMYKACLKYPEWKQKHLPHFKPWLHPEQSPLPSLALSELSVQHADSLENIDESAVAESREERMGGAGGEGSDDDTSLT
# Assay: StarD10 inhibition assay
# Type: biochemical
# Conditions: not given
# Experimental: as §1
row,IC50,Compound
1,39 µM,"Cc1cc(C)nc(NS(=O)(=O)c2ccc(NC(=O)NC(=O)c3cccc(Cl)c3Cl)cc2)n1 [Compound 9, 2,3-dichloro-N-(4-(N-(4,6-dimethylpyrimidin-2-yl)sulfamoyl)phenylcarbamoyl) benzamide]"
2,11 µM,"Cc1cc(C)nc(N(C)S(=O)(=O)c2ccc(NC(=O)NC(=O)c3ccc(Cl)cc3Cl)cc2)n1 [Compound 12, 2,4-dichloro-N-(4-(N-(4,6-dimethylpyrimidin-2-yl)-N-methylsulfamoyl)phenylcarbamoyl) benzamide]"
3,20 µM,"Cc1cc(NS(=O)(=O)c2ccc(NC(=O)NC(=O)c3ccc(Cl)cc3Cl)cc2)nc(C)n1 [Compound 13, 2,4-dichloro-N-(4-(N-(2,6-dimethylpyrimidin-4-yl)sulfamoyl)phenylcarbamoyl) benzamide]"
4,17 µM,"Cc1cc(C)nc(NS(=O)(=O)c2ccc(NC(=O)N(C)C(=O)c3ccc(Cl)cc3Cl)cc2)n1 [Compound 15, 2,4-dichloro-N-(4-(N-(4,6-dimethylpyrimidin-2-yl)sulfamoyl)phenylcarbamoyl)-N-methylbenzamide]"
5,23 µM,"O=C(Nc1ccccc1Cl)C(Sc1cccc[n+]1[O-])c1ccccc1 (stereo not drawn) [Compound 33, 2-(2-(2-chlorophenylamino)-2-oxo-1-phenylethylthio)pyridine 1-oxide]"
